Common to all, as to assay type: physicochemical
The nature of data set [1]: Indirect assay of diffuser blocks (GC/FID, pheromone remaining in the block). The conditions noted are these: despecified pheromone. The protocol: Analyses were carried out using the gas chromatography (GC) technique with a flame ionization detector (FID), commonly known as GC/FID. The instrument used was the Shimadzu GC2025.® • Injection: Quantity injected: 1 μL, split 50:1, temperature: 230° C. • Separation: DB-WAX column (Agilent), length: 20 m, diameter: 180 μm, film thickness: […] • Carrier gas: Helium (He) • Analysis time: 11.50 min (not including time to return to equilibrium between each analysis) injection). • Detection: FID, temperature: 250° C., flow rates: H2: 40 mL/min, Air: 400 mL/min, Nitrogen (make-up): 30 mL/min. To obtain a representative sample, “cores” were drilled at various positions in the block and then collected. 2.5 g of gel were weighed into a 50 mL volumetric flask and the volume made up to the beginning of the neck of the flask with acetone. The flask was then placed in an ultrasonic bath for one hour until the block was dissolved (a white precipitate was obtained), then acetone was added to the mark. An aliquot of this solution was placed in a syringe fitted with a syringe filter and filtered to obtain a translucent solution. The resulting solution was transferred to a 1.5 mL GC vial for analysis. The assays were carried out using a calibration range.

Data set [2] in a line: F3 block stability study in sodium stearate aqueous gel (GC-MS). To be noted: after 3 months. As for the experimental part: Aqueous sodium stearate gel is a method used by SIGNS for several of the pheromones it markets (pork, poultry, rabbit). The sodium stearate matrix is cast at high temperature (60° C.) and contains 2% pheromone. In this study, matrix samples are taken by coring, and the active ingredients are extracted by apolar solvent, using the SIGNS-validated quality control method. Extracts are analyzed by GC-MS. […] Given this observation, formula F3 cannot be used in blocks for passive diffusion, so a change of galenic formulation is necessary.

Data set [3] is described as follows: F3 sticks device, direct diffusion, 40 mL and four sticks (SPME GC/MS). To be noted: four sticks. The protocol:
Three devices containing 40 mL of F3 feline facial pheromone product and four rattan sticks were prepared and left on diffusion. Every Monday, Wednesday and Friday, the diffusion of the pheromone in air was checked by analysis by gas chromatography coupled with mass spectrometer (GC/MS) and SPME (solid phase microextraction) until there is no liquid left (about 22 days).
To that purpose, the studied device was taken and placed into a closed space (in our case an aquarium turned over) containing the SPME fiber as shown on FIG. 24.
The SPME fiber was left for two hours to give the time for the molecules to adsorb on the fiber, then the fiber was injected into the GC/MS instrument for analysis.
Analysis were carried out using gas chromatography with mass spectrometer. The instrument was a GCMS QP2010SE® from Shimadzu with an AOC6000® Autosampler. The separation was performed on a ZB-5 MS® column (30 m×0.25 mm×0.25 μm, stationary phase: 95% Dimethylpolysiloxane, 5% Phenyl-Arylene) from Phenomenex. The GC oven temperature was initially held at 100° C. for 1 minute then increased at a pace of 10° C./min to 120° C. and left at this temperature for 3 minutes. Finally, the oven temperature was increased at a pace of 10° C./min to 240° C. and left at this temperature for 10 minutes. The carrier gas was helium at 1 mL/min. Analysis were performed in split mode using a split/splitless injector (Temperature: 250° C., split: 1:20). The SPME fiber was directly injected into the injector and left for 30 minutes. Separated molecules were detected using a mass spectrometer which was operated in electron impact ionization (EI) in both full scan (FS) and single ion monitoring (SIM) modes, so called FASST (Fast Automated SCAN/SIM type) mode. The interface temperature was set at 300° C. and electron impact source temperature at 250° C. The analyser was a quadrupole.
For the measurement of the relative quantity of active ingredient spreading in air, the area of the chromatographic peak corresponding to the compound was measured using Shimadzu GCMS-Solution software.

A short description of data set [4]: F3 migration along the stick (top 1 cm, GC/MS). To be noted: F3, five sticks. As for the experimental part: Three devices containing 40 mL of F3 feline facial pheromone product and five […] sticks were prepared and left on diffusion. A t=1 day, T=3 days, T=10 days, T=15 days and T=22 days after preparation of the devices, one stick was taken on each device and 1 cm of the top of each stick was cut, then extracted with acetone 1 h in an ultrasonic bath and analysed by gas chromatography coupled with mass spectrometry (GC/MS). The same analytical parameters were used for the study C with a liquid injection (injected quantity: […]) Blank analysis and matrix blank analysis were also performed.

Data set [5] can be described thus: F3P PCDS direct diffusion (SPME GC/MS). To be noted: 40 mL, 6 capillaries. The protocol: For this study, three diffusers each containing 40 mL of product and 6 capillaries were prepared and diffused. Every Monday, Wednesday and Friday, pheromone diffusion in the air was monitored by GC/MS and SPME (Solid Phase Micro Extraction) until no liquid remained.
Experimentally, the device studied was placed in a closed space (in our case an upturned aquarium) containing the SPME fiber. The set-up si the same as the set-up shown in Section D/above and in FIG. 24. The SPME fiber was left for 2 hours to give the molecules time to absorb onto the fiber, then the fiber was injected into the GC/MS instrument for analysis. Pheromone diffusion over time was then studied.
Same elements as in Section E/V. C. are reproduced in this section.

The structures appear in SMILES notation.

For `CCCCCCCC/C=C\CCCCCCCC(=O)OC` [methyl oleate, methyl (Z)-octadec-9-enoate], the “% of the active ingredient in the pheromone” value is recorded as 30.4% in data set [1] (day 0); 30.6% in data set [1] (day 7); 30.6% in data set [1] (day 14); 30.7% in data set [1] (day 21); 30.7% in data set [1] (day 28). Besides, in data set [2], the “stability in the block” value was “remained stable”. In addition, the “direct diffusion over time” value is on record as “slight increase of the diffusion over time” in data set [3] and “increased over time” in data set [5]. Besides, in data set [4], the “quantity on the top of the stick over time” value is on record as “more pronounced increase of their quantities over time”. For the same compound, in data set [4], the “relative quantity on the top of the stick” value is on record as “major compound found on the top of the stick”.
In the case of `CCCCCCCCCCCCCCCC(=O)OC` [methyl palmitate, methyl hexadecanoate], the “% of the active ingredient in the pheromone” value in data set [1] (day 0) is given as 27.2%; in data set [1] (day 7), 27.2%; in data set [1] (day 14), 27.1%; in data set [1] (day 21), 27.1%; in data set [1] (day 28) it was 27.1%. Also, in data set [2], the “stability in the block” value is listed as “remained stable”. The “direct diffusion over time” value in data set [3] was “slight increase of the diffusion over time”; in data set [5] it was “increased over time”. Moreover, the “quantity on the top of the stick over time” value in data set [4] is “more pronounced increase of their quantities over time”.

The values are drawn from patent US20250248393A1, “METHOD OF RELEASING A SEMIOCHEMICAL IN THE ENVIRONEMENT BY PASSIVE DIFFUSION, SYSTEM AND MEANS, ESPECIALLY STICKS, TO THIS END, AND USES THEREOF” (SIGNS, priority 2024, published 2025).
